pEC50: −log10 of the molar value. In brackets after ≈: the same amount, converted by molar mass. Like-named read-outs stand apart in the source and are kept apart here.
Experiments:
[1] = test system: Staphylococcus aureus ATCC49951; assay: Broth microdilution MIC (CLSI)
[2] = test system: Staphylococcus aureus cfr (+); assay: Broth microdilution MIC (CLSI)
[3] = test system: Staphylococcus aureus vga(A) (+); assay: Broth microdilution MIC (CLSI)
[4] = test system: Streptococcus pneumoniae ATCC49619; assay: Broth microdilution MIC (CLSI)
[5] = test system: Streptococcus agalactiae lsa(E); assay: Broth microdilution MIC (CLSI)
[6] = test system: alpha coronavirus 229E (HCoV-229E or CoV229E); assay: Anti-coronavirus cytoprotection assay (inhibition of virus-induced CPE); assay type: cell-based, human corona virus (CoV229E); settings: for reduction of viral CPE: MRC-5 / CoV229E; for pEC50: Human coronavirus 229E, MRC5, 144 h
Description: Objective: The assay measured the inhibition of virus-induced cytopathic effects (CPE) and cell viability following alpha coronavirus 229E (HCoV-229E or CoV229E) in MRC-5 cells 6 days post infections with the virus by various concentrations of the investigated compounds.
Following incubation at 37° C. and at 5% CO2 for 6 days, cell viability was measured by XTT tetrazolium dye staining. The optical density of the cell culture plate was determined spectrophotometrically at 450 and 650 nm. Percent reduction of the virus-infected cells and the percent cell viability of uninfected drug control wells were calculated to determine the effective concentration at which 50% of cytopathic effect was inhibited (EC50) and the cytotoxic concentration (TC50) using four parameter curve fit analysis. The antiviral compound Remdesivir served as positive control.

[7] = test system: human respiratory syncytial virus (strain RSVA2); assay: Anti-RSV cytoprotection assay (strain RSVA2); assay type: cell-based; settings: for reduction of viral CPE: HEp2 / RSVA2; for pEC50: human respiratory syncytial virus, HEp-2, 144 h, HEp2 cells infected with RSVA2, 6 days post infection, XTT
[8] = Cell viability of uninfected HEp2 drug control wells (XTT), RSVA2 assay; assay type: cell-based, human; settings: human, HEp2 cells (uninfected drug control wells); HEp2 cells, RSVA2 assay; read-out: TC50
HEp2 cells = assay: as above; assay type: cell-based, human; settings: HEp2
[9] = test system: respiratory syncytial virus (RSV ALONG); assay: Anti-RSV cytoprotection assay, strain RSV ALONG; assay type: cell-based
[10] = test system: respiratory syncytial virus (RSV B18537); assay: Anti-RSV cytoprotection assay, strain RSV B18537; assay type: cell-based
[11] = Cellular toxicity to HEp2 cells, RSV ALONG / RSV B18537 assays; assay type: cell-based; settings: human, RSV ALONG table, read-out: TC50 (the source's name)
[12] = test system: Measles virus strain Edmonston; assay: microbe, parasite or virus in culture; assay type: cell-based
MRC-5 cells = settings: for cytotoxic effect on the viability of the cell control: MRC-5
in vitro [13] = settings: human
in vitro [14] = settings: human; remark: listed apart in the source
[15] = Metabolic stability in primary mouse hepatocytes; settings: 1 μg/mL, 4 hours, 37° C.
[16] = Metabolic stability in primary human hepatocytes; settings: 1 μg/mL, 4 hours, 37° C.
[17] = test system: influenza A virus strain (PR8); settings: influenza A PR8, concentration of 2 mg/mL; cited from earlier work
polio virus = settings: cited from earlier work
[18] = test system: herpes simplex type 1 (HSV-1) virus; settings: cited from earlier work
[19] = test system: vesicular stomatitis virus (VSV); settings: cited from earlier work
HeLa cells = assay: Cellular toxicity to HeLa cells, measles assay; settings: Ribavirin in μg/mL
[20] = test system: influenza A virus, porcine reproductive and respiratory syndrome virus (PRRSV) type 1 and 2; settings: viral up-take assay 4 hours post inoculation, WO 2009/106839; cited from earlier work
[21] = Staphylococcus aureus cfr (+) (n = 2), Lefamulin resistant
[22] = Staphylococcus aureus vga(A) (+), Lefamulin resistant
[23] = Streptococcus agalactiae lsa(E) (n = 2), Lefamulin resistant
[24] = MRC-5 cells infected with CoV229E, 6 days post infection, XTT, read-out: EC50
[25] = Staphylococcus aureus, ATCC49951

Compound: 12-epi-12-desvinyl-14-O-[(azepan-4-ylsulfanyl)-acetyl]-12-((E)-2-pyridin-3-yl-ethenyl) mutilin hydrochloride [Example 154, reference compound]
- MIC ([1]; Staphylococcus aureus ATCC49951, CAMHB): ≤0.03 µg/mL
- MIC [2, 21]: 0.5 to 4 µg/mL
- MIC [3, 22]: 2 to 4 µg/mL
- MIC [4]: ≤0.03 µg/mL
- MIC [5, 23]: 4 to 8 µg/mL

Compound: Cc1nccnc1/C=C/[C@@]1(C)C[C@@H](OC(=O)CSC2CCNCC2)[C@]2(C)[C@H](C)CC[C@]3(CCC(=O)[C@H]32)[C@@H](C)[C@@H]1O [BC 9842, 12-epi-12-desvinyl-14-O-[(Piperidin-4-ylsulfanyl]-acetyl]-12-[2-(3-methyl-pyrazin-2-yl)-ethenyl]-mutilin]
- reduction of viral CPE ([6]; 5 μM): 100%
- reduction of viral CPE ([6]; 10 μM): 100%
- pEC50 [6, 24]: 5.72
- reduction of viral CPE ([7]; 5 μM): 52.85%
- reduction of viral CPE ([7]; 10 μM): 69.33%
- pEC50 [7]: 5.34
- CC50 at 6 days [8]: 22.4 µM
- cytotoxic effect on the viability of the cell control (HEp2 cells; 5 μM): no cytotoxic effect
- cytotoxic effect on the viability of the cell control (HEp2 cells; 10 μM): no cytotoxic effect
- cytotoxic effect on the viability of the cell control (HEp2 cells; 50 μM): cytotoxic effect
- pEC50 ([9]; human respiratory syncytial virus, HEp-2): < 4.65
- pEC50 ([10]; human respiratory syncytial virus, HEp-2, HEp2 cells infected with RSV B18537, MOI 0.001): 5.17
- CC50 [11]: 22.4 µM
- reduction of viral CPE ([12]; 10 μM, HeLa / Measles virus): 69%
- pEC50 ([12]; Measles morbillivirus, HeLa): 5.27
- cytotoxic effect on the viability of the cell control (MRC-5 cells; 5 μM): no cytotoxic effect
- cytotoxic effect on the viability of the cell control (MRC-5 cells; 10 μM): no cytotoxic effect
- cytotoxic effect on the viability of the cell control (MRC-5 cells; 50 μM): cytotoxic effect
- CC50 at 6 days (in vitro [13]): 22.4 µM
- CC50 (in vitro [14]): 24.1 µM
- MIC [1, 25]: ≤ 0.03 µg/mL
- MIC ([2]; Staphylococcus aureus): 1 to 2 µg/mL (≈ 1.75 to 3.51 µM)
- MIC [2, 21]: ≤ 4 µg/mL
- MIC ([3]; Staphylococcus aureus): 4 µg/mL (≈ 7.02 µM)
- MIC [3, 22]: ≤ 4 µg/mL
- MIC [4]: ≤ 0.03 µg/mL
- MIC ([5]; Streptococcus agalactiae): 0.5 to 1 µg/mL (≈ 0.877 to 1.75 µM)
- MIC [5, 23]: ≤ 4 µg/mL
- Metabolic stability against primary hepatocytes [% parent compound] [15]: > 60%
- Metabolic stability against primary hepatocytes [% parent compound] ([15]; listed as BC-9842): > 60%
- Metabolic stability against primary hepatocytes [% parent compound] ([15]; listed as BC-¬9842): 63.8%
- Metabolic stability against primary hepatocytes [% parent compound] [16]: > 20%
- Metabolic stability against primary hepatocytes [% parent compound] ([16]; listed as BC-9842): > 20%
- Metabolic stability against primary hepatocytes [% parent compound] ([16]; listed as BC-¬9842): 24.7%

Compound: C=C[C@]1(C)C[C@@H](OC(=O)CS[C@@H]2CC[C@@H](N)C[C@H]2O)[C@]2(C)[C@H](C)CC[C@]3(CCC(=O)[C@H]32)[C@@H](C)[C@@H]1O [Lefamulin, reference compound]
- MIC [1, 25]: ≤ 0.03 µg/mL
- MIC ([2]; Staphylococcus aureus): 16 µg/mL (≈ 31.5 µM)
- MIC ([3]; Staphylococcus aureus): 8 µg/mL (≈ 15.8 µM)
- MIC [4]: ≤ 0.03 µg/mL
- MIC ([5]; Streptococcus agalactiae): 16 µg/mL (≈ 31.5 µM)

Compound: C=C[C@]1(C)C[C@@H](OC(=O)CO)[C@]2(C)[C@H](C)CC[C@]3(CCC(=O)[C@H]32)[C@@H](C)[C@@H]1O [Pleuromutilin]
- antiviral activity [17]: antiviral activity
- antiviral activity (polio virus): did not show antiviral activity
- CPE50 (concentration conferring 50% protection of the cytopathic effect induced by HSV-1) [18]: 15 µg/mL
- pEC50 ([18]; read-out: CPE50 (concentration conferring 50% protection of the cytopathic effect induced by HSV-1)): 4.40
- activity against vesicular stomatitis virus [19]: activity

Compound: CCC(CC)COC(=O)[C@H](C)N[P@](=O)(OC[C@H]1O[C@@](C#N)(c2ccc3c(N)ncnn23)[C@H](O)[C@@H]1O)Oc1ccccc1 [Remdesivir, reference compound]
- pEC50 [6]: 6.96
- CC50 (MRC-5 cells; human): > 5 µM

Compound: NC(=O)c1ncn([C@@H]2O[C@H](CO)[C@@H](O)[C@H]2O)n1 [Ribavirin, reference compound]
- EC50 ([12]; Measles morbillivirus, HeLa): 1.88 µg/mL
- TC50 (HeLa cells): 21.6 µg/mL (≈ 88.4 µM)

Compound: C=C[C@]1(C)C[C@@H](OC(=O)CSCCN(CC)CC)[C@]2(C)[C@H](C)CC[C@]3(CCC(=O)[C@H]32)[C@@H](C)[C@@H]1O [Tiamulin, reference compound]
- reduction of viral CPE ([6]; 10 μM): 10.53%
- reduction of viral CPE ([6]; 50 μM): 81.68%
- pEC50 [6, 24]: 4.61
- reduction of viral CPE ([7]; 10 μM): 16.76%
- reduction of viral CPE ([7]; 50 μM): 43.28%
- pEC50 [7]: < 4.17
- viability (cell control) (HEp2 cells; 10 μM): 84%
- viability (cell control) (HEp2 cells; 50 μM): 70.0%
- cytotoxic effect on the viability of the cell control (MRC-5 cells; 10 μM): no cytotoxic effect
- cytotoxic effect on the viability of the cell control (MRC-5 cells; 50 μM): cytotoxic effect

Compound: C=C[C@]1(C)C[C@@H](OC(=O)CSC(C)(C)CNC(=O)[C@H](N)C(C)C)[C@]2(C)[C@H](C)CC[C@]3(CCC(=O)[C@H]32)[C@@H](C)[C@@H]1O [Valnemulin]
- antiviral activity [20]: did not exhibit antiviral activity

Compound: TMC353121 [reference compound]
- pEC50 ([9]; RSV A strain (RSV ALONG), HEp2, text, read-out: EC50): 11.00
- pEC50 ([10]; RSV B strain (RSV B18537), HEp2, text): 11.00

From US12630524B2, “Pleuromutilin in derivatives for treating viral infections” (ARIVA MED GMBH, priority 2020, dated 2026)
